In ChEMBL document CHEMBL4330117, “Synthesis, biological evaluation and molecular docking of benzimidazole grafted benzsulfamide-containing pyrazole ring derivatives as novel tubulin polymerization inhibitors” (Bioorg Med Chem, 2019) one finds IC50, inhibition and CC50 data, which are given here for eight compounds.

Bounds are passed on as bounds.

For orientation: IC50 means the midpoint of a concentration-inhibition curve. The inhibition is the relative decrease from the control value, in per cent. A word on the CC50: it is the concentration that lowers cell viability or growth by half. A lower CC50 goes with harm at low concentration.

The first series concerns A549. The series is described as follows: Antiproliferative activity against human A549 cells after 24 hrs by MTT assay. It counts as functional, cell-based. The settings on record: A549, 24 h. (In general: Tetrazolium assays rely on reduction of a dye to a coloured formazan, in cell work by metabolically active cells.)
The compound `Cc1ccc(-c2nn(-c3ccccc3)cc2-c2nc3ccccc3n2S(=O)(=O)c2ccc(C)cc2)cc1` returned an IC50 of 460 nM. This lies in the sub-micromolar range.

Regarding `O=[N+]([O-])c1ccc(S(=O)(=O)n2c(-c3cn(-c4ccccc4)nc3-c3ccc(F)cc3)nc3ccccc32)cc1`, the concentration for half-maximal inhibition (IC50) is 1030 nM.

`Cc1ccc(-c2nn(-c3ccccc3)cc2-c2nc3ccccc3[nH]2)cc1` displayed an IC50 of 4010 nM.

In turn, `O=S(=O)(c1ccc(C(F)(F)F)cc1)n1c(-c2cn(-c3ccccc3)nc2-c2ccc(C(F)(F)F)cc2)nc2ccccc21` yielded an IC50 of 860 nM.

As for `Cc1ccc(-c2nn(-c3ccccc3)cc2-c2nc3ccccc3n2S(=O)(=O)c2ccc(F)cc2)cc1`, the IC50 came out at 3240 nM.

`O=S(=O)(c1ccccc1)n1c(-c2cn(-c3ccccc3)nc2-c2ccc(C(F)(F)F)cc2)nc2ccccc21` showed an IC50 of 480 nM.

For `O=S(=O)(c1ccc(C(F)(F)F)cc1)n1c(-c2cn(-c3ccccc3)nc2-c2ccc(F)cc2)nc2ccccc21`, inhibition was half-maximal at 1280 nM (IC50).

As for `Cc1ccc(-c2nn(-c3ccccc3)cc2-c2nc3ccccc3n2S(=O)(=O)c2ccccc2)cc1`, half-maximal inhibition (IC50) was put at 760 nM.

In a further series the test system is HeLa. The series is described as follows: Antiproliferative activity against human HeLa cells after 24 hrs by MTT assay.
Details: not given
It counts as functional, cell-based.
`Cc1ccc(-c2nn(-c3ccccc3)cc2-c2nc3ccccc3n2S(=O)(=O)c2ccc(C)cc2)cc1` came in with an IC50 of 480 nM.

Consider `O=[N+]([O-])c1ccc(S(=O)(=O)n2c(-c3cn(-c4ccccc4)nc3-c3ccc(F)cc3)nc3ccccc32)cc1`, for which the IC50 stood at 1170 nM. This IC50 is about 2.4-fold higher than that of the compound before.

The compound `Cc1ccc(-c2nn(-c3ccccc3)cc2-c2nc3ccccc3[nH]2)cc1` showed an IC50 of 4950 nM.

In turn, `O=S(=O)(c1ccc(C(F)(F)F)cc1)n1c(-c2cn(-c3ccccc3)nc2-c2ccc(C(F)(F)F)cc2)nc2ccccc21` yielded a half-maximal inhibitory concentration (IC50) of 970 nM. Compared with the last compound, the IC50 is about 5.1-fold lower.

Turning to `Cc1ccc(-c2nn(-c3ccccc3)cc2-c2nc3ccccc3n2S(=O)(=O)c2ccc(F)cc2)cc1`, half-maximal inhibition (IC50) was put at 3670 nM.

The compound `O=S(=O)(c1ccccc1)n1c(-c2cn(-c3ccccc3)nc2-c2ccc(C(F)(F)F)cc2)nc2ccccc21` returned an IC50 of 560 nM.

In turn, `O=S(=O)(c1ccc(C(F)(F)F)cc1)n1c(-c2cn(-c3ccccc3)nc2-c2ccc(F)cc2)nc2ccccc21` yielded a concentration for half-maximal inhibition (IC50) of 1430 nM.

`Cc1ccc(-c2nn(-c3ccccc3)cc2-c2nc3ccccc3n2S(=O)(=O)c2ccccc2)cc1`: the 50% inhibitory concentration (IC50) was 820 nM.

A further series relates to HepG2. The series is described as follows: Antiproliferative activity against human HepG2 cells after 24 hrs by MTT assay. It counts as functional, cell-based. The settings on record: HepG2, 24 h.
`Cc1ccc(-c2nn(-c3ccccc3)cc2-c2nc3ccccc3n2S(=O)(=O)c2ccc(C)cc2)cc1` had an IC50 of 520 nM. This counts as sub-micromolar.

With `O=[N+]([O-])c1ccc(S(=O)(=O)n2c(-c3cn(-c4ccccc4)nc3-c3ccc(F)cc3)nc3ccccc32)cc1`, the IC50 came to 1340 nM.

With `Cc1ccc(-c2nn(-c3ccccc3)cc2-c2nc3ccccc3[nH]2)cc1`, half-maximal inhibition (IC50) required 6260 nM. This IC50 lies about 4.7-fold higher than the previous one.

In the case of `O=S(=O)(c1ccc(C(F)(F)F)cc1)n1c(-c2cn(-c3ccccc3)nc2-c2ccc(C(F)(F)F)cc2)nc2ccccc21`, the IC50 was found to be 1120 nM.

The compound `Cc1ccc(-c2nn(-c3ccccc3)cc2-c2nc3ccccc3n2S(=O)(=O)c2ccc(F)cc2)cc1` returned an IC50 of 5060 nM.

As to `O=S(=O)(c1ccccc1)n1c(-c2cn(-c3ccccc3)nc2-c2ccc(C(F)(F)F)cc2)nc2ccccc21`, half-maximal inhibition (IC50) required 590 nM.

The compound `O=S(=O)(c1ccc(C(F)(F)F)cc1)n1c(-c2cn(-c3ccccc3)nc2-c2ccc(F)cc2)nc2ccccc21` gave a 50% inhibitory concentration (IC50) of 1680 nM.

As for `Cc1ccc(-c2nn(-c3ccccc3)cc2-c2nc3ccccc3n2S(=O)(=O)c2ccccc2)cc1`, the IC50 was found to be 960 nM.

The test system of a further series is MCF7. The series is described as follows: Antiproliferative activity against human MCF7 cells after 24 hrs by MTT assay. The settings on record: MCF7, 24 h. It counts as functional, cell-based.
Turning to `Cc1ccc(-c2nn(-c3ccccc3)cc2-c2nc3ccccc3n2S(=O)(=O)c2ccc(C)cc2)cc1`, the IC50 was determined as 570 nM.

`O=[N+]([O-])c1ccc(S(=O)(=O)n2c(-c3cn(-c4ccccc4)nc3-c3ccc(F)cc3)nc3ccccc32)cc1` gave an IC50 of 1370 nM.

In the case of `Cc1ccc(-c2nn(-c3ccccc3)cc2-c2nc3ccccc3[nH]2)cc1`, the midpoint of inhibition, the IC50, lay at 7260 nM. Compared with the last compound, the IC50 is about 5.3-fold higher.

Compound `O=S(=O)(c1ccc(C(F)(F)F)cc1)n1c(-c2cn(-c3ccccc3)nc2-c2ccc(C(F)(F)F)cc2)nc2ccccc21` yielded an IC50 of 1240 nM.

The compound `Cc1ccc(-c2nn(-c3ccccc3)cc2-c2nc3ccccc3n2S(=O)(=O)c2ccc(F)cc2)cc1` came in with an IC50 of 5270 nM.

In the case of `O=S(=O)(c1ccccc1)n1c(-c2cn(-c3ccccc3)nc2-c2ccc(C(F)(F)F)cc2)nc2ccccc21`, half-maximal inhibition (IC50) required 630 nM.

Consider `O=S(=O)(c1ccc(C(F)(F)F)cc1)n1c(-c2cn(-c3ccccc3)nc2-c2ccc(F)cc2)nc2ccccc21`, for which it took 1580 nM to reach half-maximal inhibition (IC50).

`Cc1ccc(-c2nn(-c3ccccc3)cc2-c2nc3ccccc3n2S(=O)(=O)c2ccccc2)cc1`: inhibition was half-maximal at 830 nM (IC50).

For the next series, the target named is T1, Tubulin (Bos taurus) (UniProt Q6B856+Q862L2+Q862F3). The series is described as follows: Inhibition of [3H]colchicine binding to bovine brain tubulin at 5 uM.
Details: not given
For the compound `Cc1ccc(-c2nn(-c3ccccc3)cc2-c2nc3ccccc3n2S(=O)(=O)c2ccc(C)cc2)cc1`, the inhibition worked out at 66%.

`O=[N+]([O-])c1ccc(S(=O)(=O)n2c(-c3cn(-c4ccccc4)nc3-c3ccc(F)cc3)nc3ccccc32)cc1`: the inhibition stood at 51%.

As to `Cc1ccc(-c2nn(-c3ccccc3)cc2-c2nc3ccccc3[nH]2)cc1`, the inhibition came out at 40%.

Regarding `O=S(=O)(c1ccc(C(F)(F)F)cc1)n1c(-c2cn(-c3ccccc3)nc2-c2ccc(C(F)(F)F)cc2)nc2ccccc21`, the inhibition was found to be 54%.

Regarding `Cc1ccc(-c2nn(-c3ccccc3)cc2-c2nc3ccccc3n2S(=O)(=O)c2ccc(F)cc2)cc1`, the inhibition turned out to be 53%.

Regarding `O=S(=O)(c1ccccc1)n1c(-c2cn(-c3ccccc3)nc2-c2ccc(C(F)(F)F)cc2)nc2ccccc21`, the inhibition turned out to be 61%.

Take `O=S(=O)(c1ccc(C(F)(F)F)cc1)n1c(-c2cn(-c3ccccc3)nc2-c2ccc(F)cc2)nc2ccccc21`: the inhibition stood at 50%.

`Cc1ccc(-c2nn(-c3ccccc3)cc2-c2nc3ccccc3n2S(=O)(=O)c2ccccc2)cc1`: the inhibition was found to be 74%.

Another series concerns the target T1, Tubulin (Bos taurus). The series is described as follows: Inhibition of vinblastine binding to bovine brain tubulin at 5 uM.
Details: not given
With `Cc1ccc(-c2nn(-c3ccccc3)cc2-c2nc3ccccc3n2S(=O)(=O)c2ccc(C)cc2)cc1`, the inhibition stood at 0.18%.

For the compound `O=[N+]([O-])c1ccc(S(=O)(=O)n2c(-c3cn(-c4ccccc4)nc3-c3ccc(F)cc3)nc3ccccc32)cc1`, the inhibition is -0.04 to 0.3%.

In the case of `Cc1ccc(-c2nn(-c3ccccc3)cc2-c2nc3ccccc3[nH]2)cc1`, the inhibition turned out to be 0.05%.

For the compound `O=S(=O)(c1ccc(C(F)(F)F)cc1)n1c(-c2cn(-c3ccccc3)nc2-c2ccc(C(F)(F)F)cc2)nc2ccccc21`, the inhibition was 0.05%.

With `Cc1ccc(-c2nn(-c3ccccc3)cc2-c2nc3ccccc3n2S(=O)(=O)c2ccc(F)cc2)cc1`, the inhibition came to 0.07%.

In the case of `O=S(=O)(c1ccccc1)n1c(-c2cn(-c3ccccc3)nc2-c2ccc(C(F)(F)F)cc2)nc2ccccc21`, the inhibition was determined as 0.52%.

For `O=S(=O)(c1ccc(C(F)(F)F)cc1)n1c(-c2cn(-c3ccccc3)nc2-c2ccc(F)cc2)nc2ccccc21`, the inhibition was found to be 0.51%.

As for `Cc1ccc(-c2nn(-c3ccccc3)cc2-c2nc3ccccc3n2S(=O)(=O)c2ccccc2)cc1`, the inhibition worked out at 0.21%.

System in the next series: not listed separately
The series is described as follows: Cytotoxicity against HEK293T cells after 24 hrs by MTT assay. It counts as cell-based, HEK-293T. Conditions: human.
With `Cc1ccc(-c2nn(-c3ccccc3)cc2-c2nc3ccccc3n2S(=O)(=O)c2ccc(C)cc2)cc1`, the CC50 at 24 h was found to be 79300 nM. In other words, the double-digit micromolar range.

The compound `O=[N+]([O-])c1ccc(S(=O)(=O)n2c(-c3cn(-c4ccccc4)nc3-c3ccc(F)cc3)nc3ccccc32)cc1` came in with a CC50 at 24 h of 189000 nM.

`Cc1ccc(-c2nn(-c3ccccc3)cc2-c2nc3ccccc3[nH]2)cc1` came in with a CC50 at 24 h of 187000 nM.

The compound `O=S(=O)(c1ccc(C(F)(F)F)cc1)n1c(-c2cn(-c3ccccc3)nc2-c2ccc(C(F)(F)F)cc2)nc2ccccc21` showed a cytotoxic concentration (CC50) at 24 h of 63200 nM.

`Cc1ccc(-c2nn(-c3ccccc3)cc2-c2nc3ccccc3n2S(=O)(=O)c2ccc(F)cc2)cc1` had a CC50 at 24 h of 128000 nM. Against the preceding compound, the CC50 at 24 h is about 2-fold higher.

As for `O=S(=O)(c1ccccc1)n1c(-c2cn(-c3ccccc3)nc2-c2ccc(C(F)(F)F)cc2)nc2ccccc21`, the CC50 at 24 h is 128000 nM.

Regarding `O=S(=O)(c1ccc(C(F)(F)F)cc1)n1c(-c2cn(-c3ccccc3)nc2-c2ccc(F)cc2)nc2ccccc21`, the CC50 at 24 h was found to be 241000 nM. Against the preceding compound, the CC50 at 24 h is about 1.9-fold higher.

Regarding `Cc1ccc(-c2nn(-c3ccccc3)cc2-c2nc3ccccc3n2S(=O)(=O)c2ccccc2)cc1`, the CC50 at 24 h was 138000 nM.

System in a further series: not listed separately
The series is described as follows: Cytotoxicity against mouse primary hepatocytes after 24 hrs by MTT assay. It counts as cell-based, Hepatocyte.
Details: not given
`Cc1ccc(-c2nn(-c3ccccc3)cc2-c2nc3ccccc3n2S(=O)(=O)c2ccc(C)cc2)cc1` registered a CC50 at 24 h of 102000 nM.

As for `O=[N+]([O-])c1ccc(S(=O)(=O)n2c(-c3cn(-c4ccccc4)nc3-c3ccc(F)cc3)nc3ccccc32)cc1`, the CC50 at 24 h was greater than 300000 nM.

The compound `Cc1ccc(-c2nn(-c3ccccc3)cc2-c2nc3ccccc3[nH]2)cc1` gave a CC50 at 24 h greater than 300000 nM.

`O=S(=O)(c1ccc(C(F)(F)F)cc1)n1c(-c2cn(-c3ccccc3)nc2-c2ccc(C(F)(F)F)cc2)nc2ccccc21`: the CC50 at 24 h stood at 137000 nM.

In the case of `Cc1ccc(-c2nn(-c3ccccc3)cc2-c2nc3ccccc3n2S(=O)(=O)c2ccc(F)cc2)cc1`, half-maximal cytotoxicity (CC50 at 24 h) was put at 167000 nM.

Turning to `O=S(=O)(c1ccccc1)n1c(-c2cn(-c3ccccc3)nc2-c2ccc(C(F)(F)F)cc2)nc2ccccc21`, the CC50 at 24 h worked out at 186000 nM.

`O=S(=O)(c1ccc(C(F)(F)F)cc1)n1c(-c2cn(-c3ccccc3)nc2-c2ccc(F)cc2)nc2ccccc21` yielded a CC50 at 24 h of 55300 nM.

Turning to `Cc1ccc(-c2nn(-c3ccccc3)cc2-c2nc3ccccc3n2S(=O)(=O)c2ccccc2)cc1`, it took 189000 nM to reach half-maximal cytotoxicity (CC50 at 24 h).
